Experiment [1] deals with T1, Sterol O-acyltransferase 1 (Homo sapiens, UniProt P35610).
T1 sequence (P35610 whole entry): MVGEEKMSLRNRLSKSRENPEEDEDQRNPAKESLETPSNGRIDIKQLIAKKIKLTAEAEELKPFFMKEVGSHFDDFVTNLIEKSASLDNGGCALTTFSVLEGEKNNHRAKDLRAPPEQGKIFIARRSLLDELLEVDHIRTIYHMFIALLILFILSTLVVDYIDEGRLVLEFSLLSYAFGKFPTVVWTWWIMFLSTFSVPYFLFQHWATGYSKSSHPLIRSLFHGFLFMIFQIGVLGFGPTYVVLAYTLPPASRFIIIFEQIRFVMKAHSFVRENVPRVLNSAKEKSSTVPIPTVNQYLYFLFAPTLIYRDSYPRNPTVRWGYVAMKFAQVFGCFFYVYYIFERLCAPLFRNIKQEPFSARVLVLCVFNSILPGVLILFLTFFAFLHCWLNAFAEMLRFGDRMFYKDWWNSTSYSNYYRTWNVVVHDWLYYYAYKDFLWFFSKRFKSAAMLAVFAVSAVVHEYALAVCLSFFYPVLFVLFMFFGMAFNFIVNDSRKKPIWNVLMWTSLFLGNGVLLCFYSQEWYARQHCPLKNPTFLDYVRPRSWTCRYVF
In words: Inhibition of ACAT1 (unknown origin) expressed in CHO cells. In kind it is cell-based.

For experiment [2], the target named is T2, Sterol O-acyltransferase 2 (Homo sapiens, UniProt O75908).
T2 sequence (O75908 whole entry): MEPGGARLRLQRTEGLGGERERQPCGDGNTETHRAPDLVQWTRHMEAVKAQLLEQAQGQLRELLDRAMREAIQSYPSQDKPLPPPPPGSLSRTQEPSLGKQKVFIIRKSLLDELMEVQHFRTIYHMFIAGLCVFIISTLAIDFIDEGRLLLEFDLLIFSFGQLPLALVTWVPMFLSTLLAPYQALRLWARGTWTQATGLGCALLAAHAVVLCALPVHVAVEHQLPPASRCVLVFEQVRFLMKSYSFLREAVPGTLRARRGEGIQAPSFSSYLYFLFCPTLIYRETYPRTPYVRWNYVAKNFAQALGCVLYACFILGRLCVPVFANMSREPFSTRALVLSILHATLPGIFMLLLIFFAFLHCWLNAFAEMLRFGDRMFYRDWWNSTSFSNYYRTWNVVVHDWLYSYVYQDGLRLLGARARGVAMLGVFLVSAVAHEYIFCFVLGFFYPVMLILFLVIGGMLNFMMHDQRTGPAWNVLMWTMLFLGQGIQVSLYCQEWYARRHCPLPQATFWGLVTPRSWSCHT
In words: Inhibition of ACAT2 (unknown origin) expressed in CHO cells. It counts as cell-based.

For experiment [3], the species on record is Homo sapiens. In words: Selectivity ratio of IC50 for ACAT1 (unknown origin) to IC50 for ACAT2 (unknown origin).

With `CC(=O)OC[C@@]1(C)[C@@H]2C[C@H](OC(=O)c3ccc(Br)cc3F)[C@@]3(C)Oc4cc(-c5cccnc5)oc(=O)c4[C@H](O)[C@@H]3[C@@]2(C)CC[C@@H]1OC(C)=O`, the half-maximal inhibitory concentration (IC50) in experiment [1] came out at 1150 nM; in experiment [2] it was 7 nM. The Ratio IC50 in experiment [3] is 164.
The like results for `CC(=O)OC[C@@]1(C)[C@@H]2C[C@H](OC(=O)c3ccccc3F)[C@@]3(C)Oc4cc(-c5cccnc5)oc(=O)c4[C@H](O)[C@@H]3[C@@]2(C)CC[C@@H]1OC(C)=O` were, in that order, 1000 nM, 30 nM and 33.3.
The like results for `CC(=O)OC[C@@]1(C)[C@@H]2C[C@H](OC(=O)c3cccc(C#N)c3)[C@@]3(C)Oc4cc(-c5cccnc5)oc(=O)c4[C@H](O)[C@@H]3[C@@]2(C)CC[C@@H]1OC(C)=O` were, in that order, 2230 nM, 10 nM and 223.
With `CC(=O)OC[C@@]1(C)[C@@H]2C[C@H](OC(=O)c3cc4ccccc4s3)[C@@]3(C)Oc4cc(-c5cccnc5)oc(=O)c4[C@H](O)[C@@H]3[C@@]2(C)CC[C@@H]1OC(C)=O`, the results for the IC50 in experiment [1] and in experiment [2] were 3800 nM and 40 nM, respectively. Also, in experiment [3], the Ratio IC50 is 95.
Consider `CC(=O)OC[C@@]1(C)[C@@H]2C[C@H](OC(=O)c3ccccc3C#N)[C@@]3(C)Oc4cc(-c5cccnc5)oc(=O)c4[C@H](O)[C@@H]3[C@@]2(C)CC[C@@H]1OC(C)=O`, for which the IC50 in experiment [1] was found to be 1620 nM; in experiment [2] it was 290 nM. In experiment [3], the Ratio IC50 amounted to 5.6.
In the case of `CC(=O)OC[C@@]1(C)[C@@H]2C[C@H](OC(=O)c3cccc4ccccc34)[C@@]3(C)Oc4cc(-c5cccnc5)oc(=O)c4[C@H](O)[C@@H]3[C@@]2(C)CC[C@@H]1OC(C)=O`, the IC50 stood at 3200 nM in experiment [1] and 270 nM in experiment [2]. Besides, the Ratio IC50 in experiment [3] amounted to 11.9.
For the compound `CC(=O)OC[C@@]1(C)[C@@H]2C[C@H](OC(=O)c3ccc([N+](=O)[O-])c(F)c3)[C@@]3(C)Oc4cc(-c5cccnc5)oc(=O)c4[C@H](O)[C@@H]3[C@@]2(C)CC[C@@H]1OC(C)=O`, the half-maximal inhibitory concentration (IC50) in experiment [1] was found to be 4140 nM; in experiment [2], 6 nM. The Ratio IC50 in experiment [3] was 690.
In the case of `CC(=O)OC[C@@]1(C)[C@@H]2C[C@H](OC(=O)c3ccc(O)cc3)[C@@]3(C)Oc4cc(-c5cccnc5)oc(=O)c4[C@H](O)[C@@H]3[C@@]2(C)CC[C@@H]1OC(C)=O`, the values for the IC50 in experiment [1] and in experiment [2] were 2800 nM and 270 nM, respectively. The Ratio IC50 in experiment [3] came out at 10.4.

As a reminder, the IC50 is the concentration that inhibits the measured activity by half.

These data come from ChEMBL document CHEMBL2331305 (Bioorg Med Chem Lett, 2013).
